Assay results as given in patent US20250059188A1, “ARYLSULPHONAMIDE COMPOUNDS” (Anaxis Pharma Pty Ltd, priority 2021, published 2025).

Key:
[1] = tested on: U937 human histiocytic leukemia cell line; assay: Inhibition of TSQ induced necroptosis in U937 cells (CellTitre-Glo); conditions: Homo sapiens, U-937, TSQ cocktail (TNF, Smac mimetic, Q-VD-OPh), 48 hours, read-out: Inhibition of TSQ-induced necroptosis (IC50 cell-based assay)
Protocol: Cellular Assay: Screening Compounds for Inhibition of TSQ Induced Necroptosis, 384 Well Plate Format.
(§1) • Cell Line ID: U937 human histiocytic leukemia cell line. • Cell Concentration (cells/well): Final cell density is 20000 cells per well. • Cell growth medium: HT-RPMI medium+7.4% Fetal Bovine Serum (FBS). Cells are cultured in Corning 150 cm^2 tissue culture flasks with vented caps at 37° C./5% CO2. • Incubation: Plates were incubated at 37° C./5% CO2 in a humidified incubator for 48 hours following addition of compounds and death stimuli (TSQ cocktail). • Compound concentration: 36 μM starting concentration, 1:3 dilution, 10 point • DMSO final concentration (% v/v): 0.3%. Compounds in TSQ Cocktail (T: TNF; S: Smac Mimetic; Q: Q-VD-OPh) and their Final Concentrations: • hTNF-Fc (100 ng/ml)—produced by standard procedures as shown in Bossen et al., J. Biol. Chem., 2006, 281(20), 13964-13971. • Compound A (500 nM) —Smac mimetic, Tetralogic and SYNthesis med chem • Q-VD-OPh (10 μM) —MP Biomedicals
(§2) The cellular assay was carried out according to the following steps: • 1. Each well was prepared by sequential addition of: • a. DMSO (control; columns 1-2 and 23-24) or compound in DMSO—addition was performed using acoustic transfer of nL volumes of stock compound to give final test concentrations of 36, 12, 4, 1.3, 0.44, 0.148, 0.049, 0.016, 0.005 and 0.002 μM. All wells were backfilled with DMSO to a final total volume in the well of 100 nL. • b. Following compound/DMSO addition in step (a), 40 μL of cell suspension (5×10^5 cells/mL) was added to provide a final cell concentration of 20,000 cells per well, and • c. Following cell addition in step (b), 10 μL of 5×TSQ cocktail (except to positive controls; columns 1 and 23) was added to each well. • 2. After 48 hours, plate was removed from the 37° C. incubator and equilibrated to room temperature for 45 minutes. • 3. 15 μL of room temperature CellTitre-Glo2™ (Promega™) was added to each well. • 4. Shook plates for 2 minutes (˜600 rpm) and incubated at room temperature for 15 minutes to allow signal to stabilise. • 5. Read luminescence readout on a plate reader.
Percent viability was calculated for each compound according to equation (2): […]
(§3) 10 point titration curves were fitted with the 4 parameter logistic nonlinear regression model and the IC50 reported reflect the inflection point of the curve for curve fitting.
(§4) • Assay involving the TSQ cocktail (T: TNF; S: Smac mimetic; Q: Q-VD-OPh): TSQ treatment ensures that cells specifically undergo necroptotic cell death. TNF activates the TNF receptor, Smac mimetic directs the signal away from proinflammatory signaling and toward the RIPK1/RIPK3-mediated cell death pathways, and Q-VD-OPh ensures that the apoptotic response is blocked leaving only the programmed necrosis response. The compounds' activity (solution in DMSO) tested in this TSQ-induced assay was evaluated by determining the number of viable cells in culture by measuring the amount of ATP present as measured by CelltiterGlo. • Counter screen: In parallel, all compounds were tested for their ability to affect cell viability. The same U937 cells were treated with compound in DMSO without the TSQ cocktail. This counter screen enabled evaluation of off-target effects. In this case, cell viability was measured by CelltiterGlo.

human MLKL (full length) = human MLKL (full length) (Homo sapiens (Human), UniProt Q8NB16); assay: KINOMEscan binding assay, human MLKL (full length); conditions: equilibrium dissociation constant
Chain of human MLKL (full length) (Q8NB16 whole entry): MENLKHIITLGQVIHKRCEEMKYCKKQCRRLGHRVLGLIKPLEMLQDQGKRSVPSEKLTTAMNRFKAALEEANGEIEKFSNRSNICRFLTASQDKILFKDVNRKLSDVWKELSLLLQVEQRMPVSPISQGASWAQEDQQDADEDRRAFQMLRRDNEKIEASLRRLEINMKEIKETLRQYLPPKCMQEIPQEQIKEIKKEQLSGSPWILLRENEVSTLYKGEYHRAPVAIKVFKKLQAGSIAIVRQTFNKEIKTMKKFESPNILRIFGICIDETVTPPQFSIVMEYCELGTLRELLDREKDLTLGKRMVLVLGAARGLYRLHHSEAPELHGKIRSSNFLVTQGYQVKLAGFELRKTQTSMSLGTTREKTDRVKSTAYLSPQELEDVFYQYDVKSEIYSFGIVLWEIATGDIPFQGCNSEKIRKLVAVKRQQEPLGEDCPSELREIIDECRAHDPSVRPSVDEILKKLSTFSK
Protocol: (§5) Binding affinity of the test compounds for human MLKL (full length), mouse MLKL (full length), human RIPK1 and human RIPK3 was determined using the KINOMEscan™ technology developed by DiscoverX (USA; http://www.discoverx.com). The assay was conducted according to manufacturer instructions.
(§6) Kinase assays. For most assays, kinase-tagged T7 phage strains were grown in parallel in 24-well blocks in an E. coli host derived from the BL21 strain. E. coli were grown to log-phase and infected with T7 phage from a frozen stock (multiplicity of infection=0.4) and incubated with shaking at 32° C. until lysis (90-150 minutes). The lysates were centrifuged (6,000×g) and filtered (0.2 μm) to remove cell debris. The remaining kinases were produced in HEK-293 cells and subsequently tagged with DNA for qPCR detection. […] The liganded beads were blocked with excess biotin and washed with blocking buffer (SeaBlock (Pierce), 1% BSA, 0.05% Tween 20, 1 mM DTT) to remove unbound ligand and to reduce non-specific phage binding. […] All reactions were performed in polypropylene 384-well plates in a final volume of 20 μL. […] The kinase concentration in the eluates was measured by qPCR.
(§7) An 11-point 3-fold serial dilution of each test compound was prepared in 100% DMSO at 100× final test concentration and subsequently diluted to 1× in the assay (final DMSO concentration=1%). Most Kos were determined using a compound top concentration=30,000 nM.
(§8) KD for each test compound was calculated with a standard dose-response curve using the Hill equation (equation (1)): […]
(§9) The Hill Slope was set to −1.
(§10) Curves were fitted using a non-linear least square fit with the Levenberg-Marquardt algorithm.

human RIPK1 = human RIPK1 (Homo sapiens (Human), UniProt Q13546); assay: KINOMEscan binding assay, human RIPK1; conditions: equilibrium dissociation constant
Chain of human RIPK1 (Q13546 whole entry): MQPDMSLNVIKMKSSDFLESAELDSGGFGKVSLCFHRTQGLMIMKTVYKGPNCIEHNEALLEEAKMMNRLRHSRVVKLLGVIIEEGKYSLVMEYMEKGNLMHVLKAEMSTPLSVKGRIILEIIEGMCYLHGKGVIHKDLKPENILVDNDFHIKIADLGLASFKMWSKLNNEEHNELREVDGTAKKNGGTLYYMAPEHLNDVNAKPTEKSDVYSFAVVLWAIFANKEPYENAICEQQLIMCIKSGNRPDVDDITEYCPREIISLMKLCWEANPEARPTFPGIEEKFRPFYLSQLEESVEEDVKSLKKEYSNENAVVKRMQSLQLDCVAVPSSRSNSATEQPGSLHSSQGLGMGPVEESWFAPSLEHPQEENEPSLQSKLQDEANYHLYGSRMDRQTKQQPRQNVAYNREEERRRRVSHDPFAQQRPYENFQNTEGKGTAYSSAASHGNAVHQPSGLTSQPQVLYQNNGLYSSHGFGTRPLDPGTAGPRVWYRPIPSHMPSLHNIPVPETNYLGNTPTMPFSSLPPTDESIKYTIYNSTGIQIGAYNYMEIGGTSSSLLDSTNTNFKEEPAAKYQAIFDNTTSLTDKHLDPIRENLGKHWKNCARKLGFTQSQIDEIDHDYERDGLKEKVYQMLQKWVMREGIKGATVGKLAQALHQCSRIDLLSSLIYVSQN
Protocol: as §5, §6, §7, §8, §9, §10

human RIPK3 = human RIPK3 (Homo sapiens (Human), UniProt Q9Y572); assay: KINOMEscan binding assay, human RIPK3; conditions: equilibrium dissociation constant
Chain of human RIPK3 (Q9Y572 whole entry): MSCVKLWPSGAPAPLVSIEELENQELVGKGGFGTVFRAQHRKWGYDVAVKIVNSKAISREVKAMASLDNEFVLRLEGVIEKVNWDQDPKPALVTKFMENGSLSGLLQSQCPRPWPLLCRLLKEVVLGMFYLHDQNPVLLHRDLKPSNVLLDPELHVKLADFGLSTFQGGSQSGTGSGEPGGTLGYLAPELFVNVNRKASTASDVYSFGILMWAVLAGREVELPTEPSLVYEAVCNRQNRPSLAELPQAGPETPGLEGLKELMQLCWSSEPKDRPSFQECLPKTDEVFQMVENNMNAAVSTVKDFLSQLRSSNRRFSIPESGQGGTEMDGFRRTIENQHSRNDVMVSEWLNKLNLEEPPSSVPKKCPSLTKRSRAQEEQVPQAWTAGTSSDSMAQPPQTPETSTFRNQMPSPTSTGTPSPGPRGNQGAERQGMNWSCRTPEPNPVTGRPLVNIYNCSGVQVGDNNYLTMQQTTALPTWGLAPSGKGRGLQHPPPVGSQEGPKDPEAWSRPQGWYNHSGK
Protocol: as §5, §6, §7, §8, §9, §10

U937 cells = assay: Counter screen: U937 cell viability without TSQ cocktail (off-target effect); set-up: species or system human; conditions: Homo sapiens, U-937, compound without TSQ cocktail, read-out: Off-target effect (IC50 cell-based assay)
Protocol: as §1, §2, §3, §4

Row | SMILES | Kd (human MLKL (full length)) | Kd (human RIPK1) | Kd (human RIPK3) | IC50 [1] | IC50 (U937 cells)
1 | CC#Cc1cnc(N)c2c(-c3ccc(NS(=O)(=O)C(F)F)c(O[C@@H](C)c4ccc(F)cc4)c3)nn(C)c12 [Compound 56, (S)-N-(4-(4-amino-1-methyl-7-(prop-1-yn-1-yl)-1H-pyrazolo[4,3-c]pyridin-3-yl)-2-(1-(4-fluorophenyl)ethoxy)phenyl)-1,1-difluoromethanesulfonamide] | < 0.001 µM | > 10 µM | > 10 µM | 0.01 to 1 µM | > 10 µM
2 | CC(C)n1cc(-c2cnc(N)c3c(-c4ccc(NS(=O)(=O)C(F)F)c(O[C@@H](C)c5ccc(F)cc5)c4)nn(C)c23)cn1 [Compound 31, (S)-N-(4-(4-amino-7-(1-isopropyl-1H-pyrazol-4-yl)-1-methyl-1H-pyrazolo[4,3-c]pyridin-3-yl)-2-(1-(4-fluorophenyl)ethoxy)phenyl)-1,1-difluoromethanesulfonamide] | < 0.001 µM | > 10 µM | > 10 µM | < 0.01 µM | > 10 µM
3 | COC[C@H](Oc1cc(-c2nn(C)c3c(-c4cnn(C5CCOCC5)c4)cnc(N)c23)ccc1NS(=O)(=O)C(F)F)c1ccc(F)cc1 [Compound 111, (R)—N-(4-(4-amino-1-methyl-7-(1-(tetrahydro-2H-pyran-4-yl)-1H-pyrazol-4-yl)-1H-pyrazolo[4,3-c]pyridin-3-yl)-2-(1-(4-fluorophenyl)-2-methoxyethoxy)phenyl)-1,1-difluoromethanesulfonamide] | 0.001 to 0.1 µM | > 10 µM | > 10 µM | 0.01 to 1 µM | > 10 µM
4 | C[C@H](Oc1cc(-c2nn(C)c3c(-c4cnn(C5CCOCC5)c4)cnc(N)c23)ccc1NS(=O)(=O)CC(F)(F)F)c1ccc(F)cc1 [Compound 44, (S)—N-(4-(4-amino-1-methyl-7-(1-(tetrahydro-2H-pyran-4-yl)-1H-pyrazol-4-yl)-1H-pyrazolo[4,3-c]pyridin-3-yl)-2-(1-(4-fluorophenyl)ethoxy)phenyl)-2,2,2-trifluoroethane-1-sulfonamide] | 0.001 to 0.1 µM | > 10 µM | > 10 µM | 0.01 to 1 µM | > 10 µM
5 | C[C@H](Oc1cc(-c2nn(C)c3c(-c4ccc(Cl)cc4)cnc(N)c23)ccc1NS(=O)(=O)C(F)F)c1ccc(F)cc1 [Compound 87, (S)-N-(4-(4-amino-7-(4-chlorophenyl)-1-methyl-1H-pyrazolo[4,3-c]pyridin-3-yl)-2-(1-(4-fluorophenyl)ethoxy)phenyl)-1,1-difluoromethanesulfonamide] | 0.001 to 0.1 µM | > 10 µM | > 10 µM | 1 to 10 µM | > 10 µM
6 | CC1CNCC(n2cc(-c3cnc(N)c4c(-c5ccc(NS(=O)(=O)C(F)F)c(O[C@@H](C)c6ccc(F)cc6)c5)nn(C)c34)cn2)C1 (stereo partly drawn) [Compound 95, N-(4-(4-amino-1-methyl-7-(1-(5-methylpiperidin-3-yl)-1H-pyrazol-4-yl)-1H-pyrazolo[4,3-c]pyridin-3-yl)-2-((S)-1-(4-fluorophenyl)ethoxy)phenyl)-1,1-difluoromethanesulfonamide] | 0.001 to 0.1 µM | > 10 µM | > 10 µM | 0.01 to 1 µM | > 10 µM
7 | C[C@H](Oc1cc(-c2nn(C)c3c(C4CCN(C)CC4)cnc(N)c23)ccc1NS(=O)(=O)C(F)F)c1ccc(F)cc1 [Compound 42, (S)—N-(4-(4-amino-1-methyl-7-(1-methylpiperidin-4-yl)-1H-pyrazolo[4,3-c]pyridin-3-yl)-2-(1-(4-fluorophenyl)ethoxy)phenyl)-1,1-difluoromethanesulfonamide] | 0.1 to 10 µM | > 10 µM | > 10 µM | 1 to 10 µM | > 10 µM
8 | C[C@H](Oc1cc(-c2nn(C)c3c(-c4cccc(Cl)c4)cnc(N)c23)ccc1NS(=O)(=O)C(F)F)c1ccc(F)cc1 [Compound 84, (S)-N-(4-(4-amino-7-(3-chlorophenyl)-1-methyl-1H-pyrazolo[4,3-c]pyridin-3-yl)-2-(1-(4-fluorophenyl)ethoxy)phenyl)-1,1-difluoromethanesulfonamide] | 0.001 to 0.1 µM | > 10 µM | > 10 µM | 1 to 10 µM | > 10 µM

Further lines, with some results ahead:

Row | Kd (human MLKL (full length)) | Kd (human RIPK1) | Kd (human RIPK3) | SMILES | IC50 [1] | IC50 (U937 cells)
9 | 0.001 to 0.1 µM | > 10 µM | > 10 µM | C[C@H](Oc1cc(-c2nn(C)c3c(-c4ccc(C(F)(F)F)nc4)cnc(N)c23)ccc1NS(=O)(=O)C(F)F)c1ccc(F)cc1 [Compound 117, (S)-N-(4-(4-amino-1-methyl-7-(6-(trifluoromethyl)pyridin-3-yl)-1H-pyrazolo[4,3-c]pyridin-3-yl)-2-(1-(4-fluorophenyl)ethoxy)phenyl)-1,1-difluoromethanesulfonamide] | 0.01 to 1 µM | > 10 µM
10 | < 0.001 µM | > 10 µM | > 10 µM | Cn1nc(-c2ccc(NS(=O)(=O)C(F)F)cc2OCc2cccc(F)c2)c2c(N)ncc(-c3cnn(C4CCOCC4)c3)c21 [Compound 135, N-(4-(4-amino-1-methyl-7-(1-(tetrahydro-2H-pyran-4-yl)-1H-pyrazol-4-yl)-1H-pyrazolo[4,3-c]pyridin-3-yl)-3-((3-fluorobenzyl)oxy)phenyl)-1,1-difluoromethanesulfonamide] | 0.01 to 1 µM | > 10 µM
11 | 0.001 to 0.1 µM | > 10 µM | > 10 µM | C[C@H](Oc1cc(-c2nn(C)c3c(-c4ccc(N5CCOCC5)nc4)cnc(N)c23)ccc1NS(=O)(=O)C(F)F)c1ccc(F)cc1 [Compound 115, (S)-N-(4-(4-amino-1-methyl-7-(6-morpholinopyridin-3-yl)-1H-pyrazolo[4,3-c]pyridin-3-yl)-2-(1-(4-fluorophenyl)ethoxy)phenyl)-1,1-difluoromethanesulfonamide] | 0.01 to 1 µM | > 10 µM
12 | 0.001 to 0.1 µM | > 10 µM | > 10 µM | Cn1nc(-c2ccc(NS(=O)(=O)C(F)F)c(OC3(c4ccc(F)cc4)CC3)c2)c2c(N)ncc(-c3cnn(C4CCOCC4)c3)c21 [Compound 140, N-(4-(4-amino-1-methyl-7-(1-(tetrahydro-2H-pyran-4-yl)-1H-pyrazol-4-yl)-1H-pyrazolo[4,3-c]pyridin-3-yl)-2-(1-(4-fluorophenyl)cyclopropoxy)phenyl)-1,1-difluoromethanesulfonamide] | 0.01 to 1 µM | > 10 µM
